Patent US12077503B2, “Substituted cyclic amides and their use as herbicides” (FMC CORPORATION, priority 2015, dated 2024)

Columns and labels:
Experiment in all cases: Test C preemergence
Assay type in all cases: in vivo
[1] = tested on: blackgrass (Alopecurus myosuroides); conditions: for Plant response rating, Blackgrass: scale 0 to 100, 0 no effect, 100 complete control
Method in brief: (§1)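 Herbicidal effect, applied preemergence to sown seeds or postemergence to 1- to 4-leaf plants, was scored visually 13 to 15 d after application, 0 to 100 versus controls.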

[2] = tested on: foxtail, giant (giant foxtail, Setaria faberii); conditions: for Plant response rating, Foxtail, Giant: scale 0 to 100, 0 no effect, 100 complete control
Method in brief: as §1

[3] = tested on: morningglory (Ipomoea coccinea); conditions: for Plant response rating, Morningglory: scale 0 to 100, 0 no effect, 100 complete control
Method in brief: as §1

[4] = tested on: waterhemp (common waterhemp, Amaranthus rudis); conditions: for Plant response rating, Waterhemp: scale 0 to 100, 0 no effect, 100 complete control
Method in brief: as §1

[5] = tested on: Galium (catchweed bedstraw, Galium aparine); conditions: for Plant response rating, Galium: scale 0 to 100, 0 no effect, 100 complete control
Method in brief: as §1

[6] = tested on: velvetleaf (Abutilon theophrasti); conditions: for Plant response rating, Velvetleaf: scale 0 to 100, 0 no effect, 100 complete control
Method in brief: as §1

[7] = tested on: oilseed rape (Brassica napus); conditions: for Plant response rating, Oilseed Rape: scale 0 to 100, 0 no effect, 100 complete control
Method in brief: as §1

[8] = tested on: crabgrass, large (large crabgrass, Digitaria sanguinalis); conditions: for Plant response rating, Crabgrass, Large: scale 0 to 100, 0 no effect, 100 complete control
Method in brief: as §1

[9] = tested on: ragweed (common ragweed, Ambrosia elatior); conditions: for Plant response rating, Ragweed: scale 0 to 100, 0 no effect, 100 complete control
Method in brief: as §1

[10] = tested on: barnyardgrass (Echinochloa crus-galli); conditions: for Plant response rating, Barnyardgrass: scale 0 to 100, 0 no effect, 100 complete control
Method in brief: as §1

[11] = tested on: lambsquarters (Chenopodium album); conditions: for Plant response rating, Lambsquarters: scale 0 to 100, 0 no effect, 100 complete control
Method in brief: as §1

[12] = tested on: pigweed (Amaranthus retroflexus); conditions: for Plant response rating, Pigweed: scale 0 to 100, 0 no effect, 100 complete control
Method in brief: as §1

[13] = tested on: corn (Zea mays); conditions: for Plant response rating, Corn: scale 0 to 100, 0 no effect, 100 complete control
Method in brief: as §1

[14] = tested on: soybean (Glycine max); conditions: scale 0 to 100, 0 no effect, 100 complete control
Method in brief: as §1

[15] = tested on: ryegrass, Italian (Italian ryegrass, Lolium multiflorum); conditions: for Plant response rating, Ryegrass, Italian: scale 0 to 100, 0 no effect, 100 complete control
Method in brief: as §1

[16] = tested on: nutsedge, yellow (yellow nutsedge, Cyperus esculentus); conditions: for Plant response rating, Nutsedge, Yellow: scale 0 to 100, 0 no effect, 100 complete control
Method in brief: as §1

[17] = tested on: wheat (winter wheat, Triticum aestivum); conditions: for Plant response rating, Wheat: scale 0 to 100, 0 no effect, 100 complete control
Method in brief: as §1

[18] = 31 g ai/ha, 0 is no effect, 100 is complete control

CN1CC(c2ccc(C(F)(F)F)c(F)c2)C(C(=O)Nc2ccccc2S(C)(=O)=O)C1=O (stereo not shown) [Compound 397]
Plant response rating, Blackgrass ([1]; 31 g ai/ha): 55
Plant response rating, Blackgrass ([1]; 62 g ai/ha): 70
Plant response rating, Blackgrass ([1]; 125 g ai/ha): 90
Plant response rating, Blackgrass ([1]; 250 g ai/ha): 90
Plant response rating, Foxtail, Giant ([2]; 31 g ai/ha): 95
Plant response rating, Foxtail, Giant ([2]; 62 g ai/ha): 95
Plant response rating, Foxtail, Giant ([2]; 125 g ai/ha): 98
Plant response rating, Foxtail, Giant ([2]; 250 g ai/ha): 98
Plant response rating, Morningglory ([3]; 31 g ai/ha): 5
Plant response rating, Morningglory ([3]; 62 g ai/ha): 55
Plant response rating, Morningglory ([3]; 125 g ai/ha): 60
Plant response rating, Morningglory ([3]; 250 g ai/ha): 70
Plant response rating, Waterhemp ([4]; 62 g ai/ha): 90
Plant response rating, Waterhemp ([4]; 125 g ai/ha): 98
Plant response rating, Waterhemp ([4]; 250 g ai/ha): 95
Plant response rating, Galium ([5]; 31 g ai/ha): 40
Plant response rating, Galium ([5]; 62 g ai/ha): 80
Plant response rating, Galium ([5]; 125 g ai/ha): 90
Plant response rating, Galium ([5]; 250 g ai/ha): 90
Plant response rating, Velvetleaf ([6]; 62 g ai/ha): 25
Plant response rating, Velvetleaf ([6]; 125 g ai/ha): 30
Plant response rating, Velvetleaf ([6]; 250 g ai/ha): 45
Plant response rating, Oilseed Rape ([7]; 31 g ai/ha): 20
Plant response rating, Oilseed Rape ([7]; 62 g ai/ha): 70
Plant response rating, Oilseed Rape ([7]; 125 g ai/ha): 80
Plant response rating, Oilseed Rape ([7]; 250 g ai/ha): 85
Plant response rating, Crabgrass, Large ([8]; 31 g ai/ha): 98
Plant response rating, Crabgrass, Large ([8]; 62 g ai/ha): 98
Plant response rating, Crabgrass, Large ([8]; 125 g ai/ha): 100
Plant response rating, Crabgrass, Large ([8]; 250 g ai/ha): 100
Plant response rating, Ragweed ([9]; 31 g ai/ha): 20
Plant response rating, Ragweed ([9]; 62 g ai/ha): 75
Plant response rating, Ragweed ([9]; 125 g ai/ha): 70
Plant response rating, Ragweed ([9]; 250 g ai/ha): 70
Plant response rating, Barnyardgrass ([10]; 31 g ai/ha): 90
Plant response rating, Barnyardgrass ([10]; 62 g ai/ha): 95
Plant response rating, Barnyardgrass ([10]; 125 g ai/ha): 98
Plant response rating, Barnyardgrass ([10]; 250 g ai/ha): 98
Plant response rating, Lambsquarters ([11]; 31 g ai/ha): 30
Plant response rating, Lambsquarters ([11]; 62 g ai/ha): 70
Plant response rating, Lambsquarters ([11]; 125 g ai/ha): 75
Plant response rating, Lambsquarters ([11]; 250 g ai/ha): 75
Plant response rating, Pigweed ([12]; 31 g ai/ha): 55
Plant response rating, Pigweed ([12]; 62 g ai/ha): 90
Plant response rating, Pigweed ([12]; 125 g ai/ha): 95
Plant response rating, Pigweed ([12]; 250 g ai/ha): 95
Plant response rating, Corn ([13]; 31 g ai/ha): 25
Plant response rating, Corn ([13]; 62 g ai/ha): 15
Plant response rating, Corn ([13]; 125 g ai/ha): 60
Plant response rating, Corn ([13]; 250 g ai/ha): 75
Plant response rating, Soybean ([14]; 62 g ai/ha): 0
Plant response rating, Soybean ([14]; 125 g ai/ha): 0
Plant response rating, Soybean ([14]; 250 g ai/ha): 20
Plant response rating, Ryegrass, Italian ([15]; 62 g ai/ha): 60
Plant response rating, Ryegrass, Italian ([15]; 125 g ai/ha): 60
Plant response rating, Ryegrass, Italian ([15]; 250 g ai/ha): 60
Plant response rating, Nutsedge, Yellow ([16]; 31 g ai/ha): 0
Plant response rating, Nutsedge, Yellow ([16]; 62 g ai/ha): 10
Plant response rating, Nutsedge, Yellow ([16]; 125 g ai/ha): 50
Plant response rating, Nutsedge, Yellow ([16]; 250 g ai/ha): 70
Plant response rating, Wheat ([17]; 62 g ai/ha): 45
Plant response rating, Wheat ([17]; 125 g ai/ha): 45
Plant response rating, Wheat ([17]; 250 g ai/ha): 70

Cc1cccc(C2CN(C)C(=O)C2C(=O)Nc2cccc(F)c2F)c1 (stereo not shown) [Compound 667]
Plant response rating (scale of 0 to 100), Blackgrass [1, 18]: 50
Plant response rating, Blackgrass ([1]; 62 g ai/ha): 80
Plant response rating, Blackgrass ([1]; 125 g ai/ha): 85
Plant response rating, Blackgrass ([1]; 250 g ai/ha): 95
Plant response rating (scale of 0 to 100), Foxtail, Giant [2, 18]: 95
Plant response rating, Foxtail, Giant ([2]; 62 g ai/ha): 98
Plant response rating, Foxtail, Giant ([2]; 125 g ai/ha): 98
Plant response rating, Foxtail, Giant ([2]; 250 g ai/ha): 100
Plant response rating (scale of 0 to 100), Morningglory [3, 18]: 0
Plant response rating, Morningglory ([3]; 62 g ai/ha): 0
Plant response rating, Morningglory ([3]; 125 g ai/ha): 0
Plant response rating, Morningglory ([3]; 250 g ai/ha): 10
Plant response rating (scale of 0 to 100), Waterhemp [4, 18]: 0
Plant response rating, Waterhemp ([4]; 62 g ai/ha): 10
Plant response rating, Waterhemp ([4]; 125 g ai/ha): 60
Plant response rating, Waterhemp ([4]; 250 g ai/ha): 75
Plant response rating (scale of 0 to 100), Galium [5, 18]: 10
Plant response rating, Galium ([5]; 62 g ai/ha): 100
Plant response rating, Galium ([5]; 125 g ai/ha): 98
Plant response rating, Galium ([5]; 250 g ai/ha): 90
Plant response rating (scale of 0 to 100), Velvetleaf [6, 18]: 5
Plant response rating, Velvetleaf ([6]; 62 g ai/ha): 30
Plant response rating, Velvetleaf ([6]; 125 g ai/ha): 50
Plant response rating, Velvetleaf ([6]; 250 g ai/ha): 40
Plant response rating (scale of 0 to 100), Oilseed Rape [7, 18]: 35
Plant response rating, Oilseed Rape ([7]; 62 g ai/ha): 85
Plant response rating, Oilseed Rape ([7]; 125 g ai/ha): 85
Plant response rating, Oilseed Rape ([7]; 250 g ai/ha): 90
Plant response rating (scale of 0 to 100), Crabgrass, Large [8, 18]: 95
Plant response rating, Crabgrass, Large ([8]; 62 g ai/ha): 95
Plant response rating, Crabgrass, Large ([8]; 125 g ai/ha): 98
Plant response rating, Crabgrass, Large ([8]; 250 g ai/ha): 98
Plant response rating (scale of 0 to 100), Ragweed [9, 18]: 25
Plant response rating, Ragweed ([9]; 62 g ai/ha): 100
Plant response rating, Ragweed ([9]; 125 g ai/ha): 70
Plant response rating, Ragweed ([9]; 250 g ai/ha): 80
Plant response rating (scale of 0 to 100), Barnyardgrass [10, 18]: 95
Plant response rating, Barnyardgrass ([10]; 62 g ai/ha): 95
Plant response rating, Barnyardgrass ([10]; 125 g ai/ha): 98
Plant response rating, Barnyardgrass ([10]; 250 g ai/ha): 100
Plant response rating (scale of 0 to 100), Lambsquarters [11, 18]: 50
Plant response rating, Lambsquarters ([11]; 62 g ai/ha): 70
Plant response rating, Lambsquarters ([11]; 125 g ai/ha): 90
Plant response rating, Lambsquarters ([11]; 250 g ai/ha): 100
Plant response rating (scale of 0 to 100), Pigweed [12, 18]: 40
Plant response rating, Pigweed ([12]; 62 g ai/ha): 50
Plant response rating, Pigweed ([12]; 125 g ai/ha): 50
Plant response rating, Pigweed ([12]; 250 g ai/ha): 70
Plant response rating (scale of 0 to 100), Corn [13, 18]: 55
Plant response rating, Corn ([13]; 62 g ai/ha): 70
Plant response rating, Corn ([13]; 125 g ai/ha): 80
Plant response rating, Corn ([13]; 250 g ai/ha): 85
Plant response rating, Soybean ([14]; 62 g ai/ha): 10
Plant response rating, Soybean ([14]; 125 g ai/ha): 0
Plant response rating, Soybean ([14]; 250 g ai/ha): 0
Plant response rating (scale of 0 to 100), Ryegrass, Italian [15, 18]: 60
Plant response rating, Ryegrass, Italian ([15]; 62 g ai/ha): 70
Plant response rating, Ryegrass, Italian ([15]; 125 g ai/ha): 95
Plant response rating, Ryegrass, Italian ([15]; 250 g ai/ha): 98
Plant response rating (scale of 0 to 100), Nutsedge, Yellow [16, 18]: 0
Plant response rating, Nutsedge, Yellow ([16]; 62 g ai/ha): 0
Plant response rating, Nutsedge, Yellow ([16]; 125 g ai/ha): 0
Plant response rating, Nutsedge, Yellow ([16]; 250 g ai/ha): 25
Plant response rating (scale of 0 to 100), Wheat [17, 18]: 0
Plant response rating, Wheat ([17]; 62 g ai/ha): 10
Plant response rating, Wheat ([17]; 125 g ai/ha): 55
Plant response rating, Wheat ([17]; 250 g ai/ha): 50
